For six cell lines, relative viability results are on record in the supplement of paper PMC10307832.

What all share (test): relative viability (nuclei count vs DMSO), 5 days (fraction); higher = more cells survive
Compound in the experiment “Erlotinib + Pictilisib”: C#Cc1cccc(Nc2ncnc3cc(OCCOC)c(OCCOC)cc23)c1 [Erlotinib] + CS(=O)(=O)N1CCN(Cc2cc3nc(-c4cccc5[nH]ncc45)nc(N4CCOCC4)c3s2)CC1 [Pictilisib] (partner 1 µM)
The essentials:
(§1)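 Lung cancer cell lines in 1536-well plates got either a single drug or a fixed anchor-drug dose together with five library-drug doses (not always all listed) in √10 steps, by pin tool, on the day after seeding. Nuclei were counted after 5 days, and relative viability is the treated-to-vehicle ratio of nuclei counts. Values are medians of duplicate plates.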

Compound in the experiment “Erlotinib + Linsitinib”: C#Cc1cccc(Nc2ncnc3cc(OCCOC)c(OCCOC)cc23)c1 [Erlotinib] + C[C@]1(O)C[C@@H](c2nc(-c3ccc4ccc(-c5ccccc5)nc4c3)c3c(N)nccn32)C1 [Linsitinib] (partner 1 µM)
The essentials: as §1

Compound in the experiment “AT9283 + Foretinib”: O=C(Nc1c[nH]nc1-c1nc2ccc(CN3CCOCC3)cc2[nH]1)NC1CC1 [AT9283] + COc1cc2c(Oc3ccc(NC(=O)C4(C(=O)Nc5ccc(F)cc5)CC4)cc3F)ccnc2cc1OCCCN1CCOCC1 [Foretinib] (partner 0.25 µM)
The essentials:
as §1

Compound in the experiment “AT9283 + OSI-027”: O=C(Nc1c[nH]nc1-c1nc2ccc(CN3CCOCC3)cc2[nH]1)NC1CC1 [AT9283] + COc1cccc2cc(-c3nc([C@H]4CC[C@H](C(=O)O)CC4)n4ncnc(N)c34)[nH]c12 [OSI-027] (partner 0.5 µM)
The essentials:
as §1

Compound in the experiment “AT9283 + Phenformin”: O=C(Nc1c[nH]nc1-c1nc2ccc(CN3CCOCC3)cc2[nH]1)NC1CC1 [AT9283] + N=C(N)NC(=N)NCCc1ccccc1 [Phenformin] (partner 250 µM)
The method, boiled down: as §1

Take CAL-12T: the relative viability in the experiment with Erlotinib + Pictilisib (first compound 0.02 µM) was 0.277; with Erlotinib + Pictilisib (first compound 0.2 µM) it was 0.388; with Erlotinib + Pictilisib (first compound 0.6325 µM), 0.419; in the experiment with Erlotinib + Pictilisib (first compound 2 µM), 0.274; with Erlotinib + Linsitinib (first compound 0.02 µM), 0.804; with Erlotinib + Linsitinib (first compound 0.2 µM), 0.654. Moreover, the relative viability with Erlotinib + Linsitinib (first compound 0.6325 µM) came out at 0.5; in the experiment with Erlotinib + Linsitinib (first compound 2 µM), 0.368; in the experiment with AT9283 + Foretinib (first compound 0.003 µM), 1.1; in the experiment with AT9283 + Foretinib (first compound 0.03 µM) it was 0.773; in the experiment with AT9283 + Foretinib (first compound 0.09487 µM), 0.414; in the experiment with AT9283 + Foretinib (first compound 0.3 µM), 0.283. In addition, the relative viability came to 0.718 with AT9283 + OSI-027 (first compound 0.003 µM); 0.599 in the experiment with AT9283 + OSI-027 (first compound 0.03 µM); 0.216 with AT9283 + OSI-027 (first compound 0.09487 µM); 0.17 with AT9283 + OSI-027 (first compound 0.3 µM); 0.607 in the experiment with AT9283 + Phenformin (first compound 0.003 µM); 0.345 with AT9283 + Phenformin (first compound 0.03 µM). Further, the relative viability in the experiment with AT9283 + Phenformin (first compound 0.09487 µM) came to 0.267; in the experiment with AT9283 + Phenformin (first compound 0.3 µM), 0.18.
For NCI-H596, the relative viability was determined as 0.383 with Erlotinib + Pictilisib (first compound 0.02 µM); 0.478 in the experiment with Erlotinib + Pictilisib (first compound 0.2 µM); 0.383 in the experiment with Erlotinib + Pictilisib (first compound 0.6325 µM); 0.351 with Erlotinib + Pictilisib (first compound 2 µM); 1.03 with Erlotinib + Linsitinib (first compound 0.02 µM); 0.939 in the experiment with Erlotinib + Linsitinib (first compound 0.2 µM). Further, the relative viability with Erlotinib + Linsitinib (first compound 0.6325 µM) stood at 1.02; with Erlotinib + Linsitinib (first compound 2 µM), 0.789; in the experiment with AT9283 + Foretinib (first compound 0.003 µM), 0.813; with AT9283 + Foretinib (first compound 0.03 µM), 0.822; in the experiment with AT9283 + Foretinib (first compound 0.09487 µM) it was 0.744; with AT9283 + Foretinib (first compound 0.3 µM), 0.59. Besides, the relative viability stood at 0.704 in the experiment with AT9283 + OSI-027 (first compound 0.003 µM); 0.779 with AT9283 + OSI-027 (first compound 0.03 µM); 0.665 with AT9283 + OSI-027 (first compound 0.09487 µM); 0.476 with AT9283 + OSI-027 (first compound 0.3 µM); 0.743 with AT9283 + Phenformin (first compound 0.003 µM); 0.82 with AT9283 + Phenformin (first compound 0.03 µM). Also, the figures for the relative viability in the experiment with AT9283 + Phenformin (first compound 0.09487 µM) and with AT9283 + Phenformin (first compound 0.3 µM) were 0.608 and 0.564, respectively.
Regarding NCI-H1651, the relative viability with Erlotinib + Pictilisib (first compound 0.02 µM) stood at 0.511; in the experiment with Erlotinib + Pictilisib (first compound 0.2 µM), 0.628; with Erlotinib + Pictilisib (first compound 0.6325 µM) it was 0.662; in the experiment with Erlotinib + Pictilisib (first compound 2 µM) it was 0.5; in the experiment with Erlotinib + Linsitinib (first compound 0.02 µM) it was 0.967; with Erlotinib + Linsitinib (first compound 0.2 µM) it was 0.996. For the same cell line, the relative viability with Erlotinib + Linsitinib (first compound 0.6325 µM) came out at 1.07; in the experiment with Erlotinib + Linsitinib (first compound 2 µM), 0.842; with AT9283 + Foretinib (first compound 0.003 µM), 0.837; with AT9283 + Foretinib (first compound 0.03 µM), 0.779; with AT9283 + Foretinib (first compound 0.09487 µM), 0.638; with AT9283 + Foretinib (first compound 0.3 µM), 0.396. The relative viability with AT9283 + OSI-027 (first compound 0.003 µM) came out at 0.753; in the experiment with AT9283 + OSI-027 (first compound 0.03 µM) it was 0.714; in the experiment with AT9283 + OSI-027 (first compound 0.09487 µM), 0.568; with AT9283 + OSI-027 (first compound 0.3 µM), 0.334; with AT9283 + Phenformin (first compound 0.003 µM), 0.293; in the experiment with AT9283 + Phenformin (first compound 0.03 µM), 0.358. Moreover, the results for the relative viability with AT9283 + Phenformin (first compound 0.09487 µM) and with AT9283 + Phenformin (first compound 0.3 µM) were 0.277 and 0.219, respectively.
Consider NCI-H1793, for which the relative viability with Erlotinib + Pictilisib (first compound 0.02 µM) was 0.272; with Erlotinib + Pictilisib (first compound 0.2 µM), 0.386; in the experiment with Erlotinib + Pictilisib (first compound 0.6325 µM), 0.306; with Erlotinib + Pictilisib (first compound 2 µM), 0.302; in the experiment with Erlotinib + Linsitinib (first compound 0.02 µM) it was 0.785; with Erlotinib + Linsitinib (first compound 0.2 µM), 0.397. The relative viability was found to be 0.767 with Erlotinib + Linsitinib (first compound 0.6325 µM); 0.651 with Erlotinib + Linsitinib (first compound 2 µM); 0.729 in the experiment with AT9283 + Foretinib (first compound 0.003 µM); 0.484 in the experiment with AT9283 + Foretinib (first compound 0.03 µM); 0.256 with AT9283 + Foretinib (first compound 0.09487 µM); 0.219 with AT9283 + Foretinib (first compound 0.3 µM). Further, the relative viability in the experiment with AT9283 + OSI-027 (first compound 0.003 µM) is 0.278; in the experiment with AT9283 + OSI-027 (first compound 0.03 µM), 0.367; with AT9283 + OSI-027 (first compound 0.09487 µM), 0.188; with AT9283 + OSI-027 (first compound 0.3 µM) it was 0.206; with AT9283 + Phenformin (first compound 0.003 µM), 0.301; with AT9283 + Phenformin (first compound 0.03 µM) it was 0.352. The relative viability came out at 0.138 with AT9283 + Phenformin (first compound 0.09487 µM) and 0.219 in the experiment with AT9283 + Phenformin (first compound 0.3 µM).
In the case of SW 1573, the relative viability with Erlotinib + Pictilisib (first compound 0.02 µM) came to 0.525; with Erlotinib + Pictilisib (first compound 0.2 µM), 0.482; with Erlotinib + Pictilisib (first compound 0.6325 µM) it was 0.62; with Erlotinib + Pictilisib (first compound 2 µM) it was 0.419; with Erlotinib + Linsitinib (first compound 0.02 µM) it was 0.81; with Erlotinib + Linsitinib (first compound 0.2 µM), 0.724. Besides, the relative viability in the experiment with Erlotinib + Linsitinib (first compound 0.6325 µM) was found to be 0.797; in the experiment with Erlotinib + Linsitinib (first compound 2 µM), 0.853; with AT9283 + Foretinib (first compound 0.003 µM), 0.621; with AT9283 + Foretinib (first compound 0.03 µM), 0.423; in the experiment with AT9283 + Foretinib (first compound 0.09487 µM), 0.239; with AT9283 + Foretinib (first compound 0.3 µM), 0.233. For the same cell line, the relative viability is 0.534 with AT9283 + OSI-027 (first compound 0.003 µM); 0.352 with AT9283 + OSI-027 (first compound 0.03 µM); 0.146 in the experiment with AT9283 + OSI-027 (first compound 0.09487 µM); 0.134 in the experiment with AT9283 + OSI-027 (first compound 0.3 µM); 0.426 with AT9283 + Phenformin (first compound 0.003 µM); 0.163 with AT9283 + Phenformin (first compound 0.03 µM). Besides, the relative viability with AT9283 + Phenformin (first compound 0.09487 µM) stood at 0.156; with AT9283 + Phenformin (first compound 0.3 µM) it was 0.121.
For the cell line NCI-H460, the relative viability with Erlotinib + Pictilisib (first compound 0.02 µM) is 0.351; with Erlotinib + Pictilisib (first compound 0.2 µM), 0.335; in the experiment with Erlotinib + Pictilisib (first compound 0.6325 µM) it was 0.412; with Erlotinib + Pictilisib (first compound 2 µM), 0.353; with Erlotinib + Linsitinib (first compound 0.02 µM) it was 0.804; in the experiment with Erlotinib + Linsitinib (first compound 0.2 µM) it was 0.647. Moreover, the relative viability with Erlotinib + Linsitinib (first compound 2 µM) is 0.712; with AT9283 + Foretinib (first compound 0.003 µM), 0.983; with AT9283 + Foretinib (first compound 0.03 µM), 0.907; with AT9283 + Foretinib (first compound 0.09487 µM), 0.184; with AT9283 + Foretinib (first compound 0.3 µM), 0.0594; with AT9283 + OSI-027 (first compound 0.003 µM), 0.678. For the same cell line, the relative viability in the experiment with AT9283 + OSI-027 (first compound 0.03 µM) is 0.81; with AT9283 + OSI-027 (first compound 0.09487 µM), 0.248; in the experiment with AT9283 + OSI-027 (first compound 0.3 µM), 0.0423; with AT9283 + Phenformin (first compound 0.003 µM) it was 0.517; with AT9283 + Phenformin (first compound 0.03 µM), 0.508; with AT9283 + Phenformin (first compound 0.09487 µM), 0.0947. For the same cell line, in the experiment with AT9283 + Phenformin (first compound 0.3 µM), the relative viability was found to be 0.0363.
